Reference: patent US11377473B2, “Albumin-binding prodrugs of auristatin E derivatives” (priority 2017, dated 2022)

Columns and labels:
[1] = Dose finding studies
Method: Female immunodeficient NMRI nude mice, from Janvier, France, received 5×10^6-10^7 cultured cancer cell in buffer/Matrigel (1:1) inoculated subcutaneously, until tumors were palpable and had reached the desired volume (for xenograft studies).
Animals were kept in cages (Macrolon Type-II wire-mesh) with temperature maintained at 22±1° C., relative humidity of 50 f 10% and an air change rate of 60-fold per hour. Mice were kept under a 12-hour light/12-hour dark, artificial light cycle. The animals were fed with autoclaved Ssniff NM (Soest, Germany), and had access to sterile filtered and acidified (pH 4.0) tap water which was changed twice weekly. Feed and water were provided ad libitum. […] The health of the animals was examined at the start of the experiment and twice per day during the experiment. Identification used: ear mark and cage labels. Starting on day 0, animals were weighed two or three times per week and mean body weight per group was related to the initial value in percent to calculate the body weight change (BWC). Tumor diameters were determined by a two-dimensional measurement with a caliper on the day of randomization (Day 0) and then twice or three times per week. Tumor volumes were calculated according to the following equation:
Tumor Vol [mm^3]=1 [mm]×w^2 [mm^2]×0.5, where “1” is the length and “w” is width of the tumor. The relative volume of an individual tumor on day X (RTVx) was calculated by dividing the absolute individual tumor volume [mm^3] of the respective tumor on day X (Tx) by the absolute individual tumor volume of the same tumor on the day of randomization multiplied by 100%. Schedules were applied to the extent that animal welfare policies allow. Termination of individual mice was carried out at tumor volume >1500 mm^3 (unilateral) or when ulceration was observed. Statistical comparison was performed with the Mann-Whitney U-test. Dose Finding Studies of Auristatin E and the Albumin-Binding Auristatin E Derivatives AE-Keto-Sulf07 and AE-Ester-Sulf07.
Stock solutions were prepared as follows: • 1) 3 mice per group, 26 g average weight on day of randomization: 0.3, 0.6 or 1.2 mg/kg dose auristatin E TFA salt (AE equiv.) dosed once weekly for 4 weeks on day 0, 6, 13, 20≡0.35-1.41 mg/kg≡7.1-28.3 μg/20 g mouse. Sample preparation: 8.5 mg weighed in a 50 mL vial dissolved in 30.0 mL 25/75 tert-butanol/10 mM sodium phosphate buffer, 5% sucrose—pH 7.0; 0.2-0.8 mL were aliquoted in 2 mL vials depending on the final desired final dose. The vials were frozen for 1 h at −40° C. and lyophilized at −20° C. over ˜36 h and then stoppered. On day of injection, the lyophilized samples were reconstituted with 0.8 mL of 10 mM sodium phosphate buffer, 20% propylene glycol—pH 7.0. • 2) 3 mice per group, 26 g average weight on day of randomization: 1.2 and 2.4 mg/kg AE-Keto-Sulf07 (AE equiv.) dosed twice weekly for 4 weeks ≡1.94-3.87 mg/kg≡38.7 and 77.4 μg/20 g mouse. Sample preparation: 11.0 mg weighed in a 30 mL vial dissolved in 14.2 mL 50/50 tert-butanol/10 mM sodium phosphate buffer, 5% sucrose—pH 7.0; 0.4-0.8 mL were aliquoted in 2 mL vials depending on the final desired final dose. The vials were frozen for 1 h at −40° C. and lyophilized at −20° C. over ˜36 h and then stoppered. On the day of injection, the lyophilized samples were reconstituted with 0.8 mL of 10 mM sodium phosphate buffer, 20% propylene glycol—pH 7.0. • 3) 3 mice per group, 26 g average weight on day of randomization: 1.2, 1.6 or 2.0 mg/kg AE-Ester-Sulf07 (AE equiv.) dosed twice weekly for 4 weeks on day≡2.18-3.64 mg/kg≡43.7-72.8 μg/20 g mouse. Sample preparation: 19.2 mg weighed in a 30 mL vial dissolved in 26.3 mL 50/50 tert-butanol/10 mM sodium phosphate buffer, 5% sucrose—pH 7.0; 0.48-0.8 mL were aliquoted in 2 mL vials depending on the final desired final dose. The vials were frozen for 1 h at −40° C. and lyophilized at −20° C. over ˜36 h and then stoppered.

[2] = tested on: malignant melanoma cancer model A375; assay: Human malignant melanoma cancer model A375, large tumors; assay type: in vivo, NMRI nude mice
Method: (§1) Feed and water were provided ad libitum. […] Identification used: ear mark and cage labels. […] Tumor volumes were calculated according to the following equation: […]
The evaluation of auristatin E and the albumin-binding auristatin E derivative AE-Keto-Sulf07 in a human malignant melanoma cancer model A375 was carried out as described in the general procedure for cell-line-derived xenograft models.
(§2) Stock solutions were prepared as follows: • 1) 7 mice, 28 g average weight, 310 mm^3 average median tumor volume on day of randomization: 0.3 mg/kg auristatin E TFA salt (AE equiv.) dosed twice weekly for 3 weeks on day 1, 6, 9, 13, 16≡0.35 mg/kg≡7.1 μg/20 g mouse.
The evaluation of auristatin E and the albumin-binding auristatin E derivative AE-Ester-Sulf07 in a human malignant melanoma cancer model A375 was carried out as described in the general procedure for cell-line-derived xenograft models.
as §2, with “Based on the dosing experience in the RXF631 xenograft model, stock” for “Stock”, “16=0.35” for “16≡0.35”

[3] = tested on: human ovarian carcinoma model A2780; assay: Human ovarian carcinoma model A2780, large tumors; assay type: in vivo, NMRI nude mice
Method: as §1
The evaluation of auristatin E and the albumin-binding auristatin E derivative AE-Keto-Sulf07 in a human ovarian carcinoma model A2780 was carried out as described in the general procedure for cell-line-derived xenograft models.
The evaluation of auristatin E and the albumin-binding auristatin E derivative AE-Ester-Sulf07 in a human ovarian carcinoma model A2780 was carried out as described in the general procedure for cell-line-derived xenograft models.

[4] = tested on: human tumor xenograft models; assay: Antitumor activity in human tumor xenograft mice models (overall statement); assay type: in vivo, nude mice; conditions: starting tumor volumes approximately 130-170 mm^3 and up to approximately 380 mm^3
[5] = 2.4 mg/kg five times twice weekly
[6] = 1.9 mg/kg eight times twice weekly

2-(2-(1-(4-(((1S,2R)-2-((2R,3R)-3-((S)-1-((3R,4R,5S)-4-((S)-2-((R)-2-(dimethylamino)-3-methylbutanamido)-N,3-dimethylbutanamido)-3-methoxy-5-methylheptanoyl)pyrrolidin-2-yl)-3-methoxy-2-methylpropanamido)-1-phenylpropoxy)carbonyl)phenyl)ethylidene)hydrazine-1-carbonyl)-5-(6-(2,5-dioxo-2,5-dihydro-1H-pyrrol-1-yl)hexanamido)benzenesulfonic acid [AE-Ester-Sulf07]
side effect compared with the other groups ([1]; 4.0 mg/kg once weekly): lowest side effect | body weight change ([1]; 2.0, 2.2, 2.4 mg/kg twice per week and 4.0, 4.4, 4.8 mg/kg once per week over four weeks): No body weight change | appearance of skin irritation ([1]; all groups: 2.0, 2.2, 2.4 mg/kg twice per week and 4.0, 4.4, 4.8 mg/kg once per week): 9 to 14 days | tolerability ([1]; up to 2.0 mg/kg dosed twice weekly for four weeks): no evident sign of toxicity | p, antitumor improvement versus auristatin E ([2]; 2.4 mg/kg (2% polysorbate 80 or 4% 2-HPßCD) versus auristatin E 0.3 mg/kg, five injections twice weekly, day 9 to 33): < 0.01 | body weight change [2, 5]: No significant body weight change compared to the control | side effects [2, 5]: wounds due to biting and scratching were observed starting from day 9 | tumor response ([2]; 2.4 mg/kg five times twice weekly, day 16 until end of study on day 37): almost complete remission | minimum tumor volume ([2]; 2.4 mg/kg reconstituted with 2% polysorbate 80, day 23): 4 mm^3 | minimum tumor volume ([2]; 2.4 mg/kg reconstituted with 4% 2-HPßCD, day 26): 1 mm^3 | animals lost ([2]; 2.4 mg/kg, 2% polysorbate 80 group): Only one mouse | animals lost [3, 6]: four animals had to be removed from the study due to tumor necrosis | body weight [3, 6]: no sign of body weight loss compared to the control | tumor response ([3]; 1.9 mg/kg eight times twice weekly, day 19 until day 51): partial remission (partial remission >10-50%) | tumor response ([3]; 1.9 mg/kg eight times twice weekly, day 54 until end of study on day 103): complete remission (complete remission <10%) | p, antitumor efficacy versus auristatin E ([3]; 1.9 mg/kg versus auristatin E 0.3 mg/kg, eight times twice weekly, day 37 to day 40): < 0.001 | antitumor activity in all human tumor xenografts evaluated [4]: partial and complete remissions

CC[C@H](C)[C@@H]([C@@H](CC(=O)N1CCC[C@H]1[C@H](OC)[C@@H](C)C(=O)N[C@H](C)C(=NNC(=O)c1ccc(NC(=O)CCCCCN2C(=O)C=CC2=O)cc1S(=O)(=O)O)c1ccccc1)OC)N(C)C(=O)[C@@H](NC(=O)[C@H](C(C)C)N(C)C)C(C)C [AE-Keto-Sulf07, 2-(2-((R)-2-((2R,3R)-3-((S)-1-((3R,4S,5S)-4-((S)-2-((S)-2-(dimethylamino)-3-methylbutanamido)-N,3-dimethylbutanamido)-3-methoxy-5-methylheptanoyl)pyrrolidin-2-yl)-3-methoxy-2-methylpropanamido)-1-phenylpropylidene)hydrazine-1-carbonyl)-5-(6-(2,5-dioxo-2,5-dihydro-1H-pyrrol-1-yl)hexanamido)benzenesulfonic acid]
tolerability ([1]; 6.5 mg/kg biweekly in later xenograft studies, treatment stopped after five injections): above the MTD | tolerability ([1]; all doses tested (1.2 and 2.4 mg/kg), injected eight times on a biweekly schedule): well tolerated | safe dose ([1]; biweekly schedule): 4.5 mg/kg | animals lost ([2]; 6.5 mg/kg five times twice weekly): two mice had to be sacrificed for general bad conditions | tumor response ([2]; 6.5 mg/kg five times twice weekly, day 19 until end of study on day 37): complete remission (complete remission <10%) | p, antitumor effect versus auristatin E ([2]; 6.5 mg/kg versus auristatin E 0.3 mg/kg, five injections twice weekly, day 9 until day 33): < 0.01 | minimum tumor volume ([2]; 6.5 mg/kg, day 28): 1 mm^3 | tumor volume at the end of the study ([2]; 6.5 mg/kg, day 37): ~14 mm^3 | transient body weight loss ([2]; 6.5 mg/kg, reached on day 21): 13% | body weight ([3]; 4.5 mg/kg eight times twice weekly): only a slightly reduced body weight growth compared to the control | tumor response ([3]; 4.5 mg/kg eight times twice weekly, day 26 until end of study on day 103): complete remission (complete remission <10%) | p, antitumor effect versus auristatin E ([3]; 4.5 mg/kg versus auristatin E 0.3 mg/kg, eight times twice weekly, day 22 to day 40): < 0.001 | antitumor activity in all human tumor xenografts evaluated [4]: partial and complete remissions

CC[C@H](C)[C@@H]([C@@H](CC(=O)N1CCC[C@H]1[C@H](OC)[C@@H](C)C(=O)N[C@H](C)[C@@H](O)c1ccccc1)OC)N(C)C(=O)[C@@H](NC(=O)[C@H](C(C)C)N(C)C)C(C)C [auristatin E]
tolerability ([1]; 0.3 mg/kg once weekly for 4 weeks): well tolerated | tolerability ([1]; 0.6 mg/kg once weekly, no animal survived after the second injection): high toxicity | tolerability ([1]; 1.2 mg/kg once weekly, no animal survived after the first injection): high toxicity | maximum tolerated dose (MTD) ([1]; injected biweekly for four weeks (total of eight injections)): 0.3 mg/kg | tumor response ([2]; 0.3 mg/kg five times twice weekly, initial, until day 14): stable disease (stable disease >75-125%) | antitumor effect ([3]; 0.3 mg/kg eight times twice weekly): did not achieve any antitumor effect | antitumor activity in all human tumor xenografts evaluated [4]: principally inactive
